# Laboratory results taken from patent US20260355165A1, “2,3,4,9-TETRAHYDRO-1H-PYRIDO[3,4-B]INDOLE DERIVATIVES AS ESTROGEN RECEPTOR MODULATORS FOR THE TREATMENT OF CANCER” (Olema Pharmaceuticals, Inc., priority 2022, published 2026).
# Target: T1, estrogen receptor (Homo sapiens, UniProt P03372)
# T1 construct: endogenous in cells; host or cells: ECC-1 cells
# T1 sequence (P03372 1-595): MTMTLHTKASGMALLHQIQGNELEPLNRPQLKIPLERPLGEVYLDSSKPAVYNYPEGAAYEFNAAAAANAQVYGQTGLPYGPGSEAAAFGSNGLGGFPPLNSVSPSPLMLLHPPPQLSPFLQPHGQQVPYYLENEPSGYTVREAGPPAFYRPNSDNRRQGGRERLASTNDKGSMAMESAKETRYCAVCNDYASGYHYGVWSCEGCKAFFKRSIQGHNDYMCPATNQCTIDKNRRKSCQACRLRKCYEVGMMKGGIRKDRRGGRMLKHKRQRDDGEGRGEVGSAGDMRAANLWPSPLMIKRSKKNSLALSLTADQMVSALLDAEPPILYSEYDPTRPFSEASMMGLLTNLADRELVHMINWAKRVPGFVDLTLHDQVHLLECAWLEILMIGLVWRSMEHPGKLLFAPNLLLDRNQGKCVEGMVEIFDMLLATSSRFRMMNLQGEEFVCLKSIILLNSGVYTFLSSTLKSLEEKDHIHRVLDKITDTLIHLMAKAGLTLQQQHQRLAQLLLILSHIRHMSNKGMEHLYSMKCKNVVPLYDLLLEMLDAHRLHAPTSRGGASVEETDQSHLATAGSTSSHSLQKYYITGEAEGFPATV
# Experiment: AP assay (alkaline phosphatase activity in ECC-1 cells), agonist mode (absence of E2) and antagonist mode (presence of 500 pM E2)
# Format: cell-based
# Details: 3 days, AP activity normalized to 500 pM E2 alone, agonist and antagonist mode combined
# Experimental: ECC-1 cells were trypsinized and resuspended in hormone-depleted media and plated at a density of 15 k cells per well into a 96-well plate for at least 4 hours. Cells were treated with test compounds in the absence of E2 (for agonist mode) or in the presence of 500 pM E2 (for antagonist mode) for 3 days and plates were subsequently frozen at −80 °C. Thawed plates were incubated with a chromogenic substrate of AP, p-nitrophenyl phosphate (Thermo Fisher Scientific), for 40 minutes at 42 °C, and absorbances were read at 405 nm. AP activity was normalized to the activity of 500 pM E2 alone.
# The compound numbers correspond to the compound numbers of Table 1 and 2. Compounds having an activity designated as “+” provided estrogen receptor agonism having (i) at least 80% increase in the E2-normalized signal in the AP assay (agonist mode) and (ii) no more than 80% reduction in the E2-normalized signal in the AP assay (antagonist mode). Compounds having an activity designated as “++” provided estrogen receptor antagonism having (i) between 10% and 80% increase in the E2-normalized signal in the AP assay (agonist mode) and (ii) between 10% and 80% reduction in the E2-normalized signal in the AP assay (antagonist mode).
row,SMILES,"Activity (estrogen receptor modulation, e.g., agonism and antagonism)"
1,"CCCN1CC(n2ncc3cc([C@@H]4c5[nH]c6ccccc6c5C[C@@H](C)N4CC(F)(F)CO)ccc32)C1 (racemic) [Compound I-105, 2,2-difluoro-3-[rac-(1R,3R)-3-methyl-1-[1-(1-propylazetidin-3-yl)indazol-5-yl]-1,3,4,9-tetrahydropyrido[3,4-b]indol-2-yl]propan-1-ol]",++ (estrogen receptor antagonism having (i) between 10% and 80% increase in the E2-normalized signal in the AP assay (agonist mode) and (ii) between 10% and 80% reduction in the E2-normalized signal in the AP assay (antagonist mode))
2,"C[C@@H]1Cc2c([nH]c3ccccc23)[C@@H](c2ccc3c(cnn3C3CN(CCCF)C3)c2)N1CC(F)(F)CO (racemic) [Compound I-106, 2,2-difluoro-3-[rac-(1R,3R)-1-[1-[1-(3-fluoropropyl)azetidin-3-yl]indazol-5-yl]-3-methyl-1,3,4,9-tetrahydropyrido[3,4-b]indol-2-yl]propan-1-ol]",++ (estrogen receptor antagonism having (i) between 10% and 80% increase in the E2-normalized signal in the AP assay (agonist mode) and (ii) between 10% and 80% reduction in the E2-normalized signal in the AP assay (antagonist mode))
3,"CCN1CC(n2cc3cc([C@@H]4c5[nH]c6ccccc6c5C[C@@H](C)N4CC(F)(F)CO)ccc3n2)C1 (racemic) [Compound I-107, 2,2-difluoro-3-[rac-(1R,3R)-1-[2-(1-ethylazetidin-3-yl)indazol-5-yl]-3-methyl-1,3,4,9-tetrahydropyrido[3,4-b]indol-2-yl]propan-1-ol]",+ (estrogen receptor agonism having (i) at least 80% increase in the E2-normalized signal in the AP assay (agonist mode) and (ii) no more than 80% reduction in the E2-normalized signal in the AP assay (antagonist mode))
4,"CCCN1CC(n2cc3cc([C@@H]4c5[nH]c6ccccc6c5C[C@@H](C)N4CC(F)(F)CO)ccc3n2)C1 (racemic) [Compound I-108, 2,2-difluoro-3-[rac-(1R,3R)-3-methyl-1-[2-(1-propylazetidin-3-yl)indazol-5-yl]-1,3,4,9-tetrahydropyrido[3,4-b]indol-2-yl]propan-1-ol]",+ (estrogen receptor agonism having (i) at least 80% increase in the E2-normalized signal in the AP assay (agonist mode) and (ii) no more than 80% reduction in the E2-normalized signal in the AP assay (antagonist mode))
5,"C[C@@H]1Cc2c([nH]c3ccccc23)[C@@H](c2c[nH]c3cc(CO)ccc23)N1CC(C)(C)F [Compound I-1, [3-[(1R,3R)-2-(2-fluoro-2-methyl-propyl)-3-methyl-1,3,4,9-tetrahydropyrido[3,4-b]indol-1-yl]-1H-indol-6-yl]methanol]",+ (estrogen receptor agonism having (i) at least 80% increase in the E2-normalized signal in the AP assay (agonist mode) and (ii) no more than 80% reduction in the E2-normalized signal in the AP assay (antagonist mode))
6,"C[C@@H]1Cc2c([nH]c3ccccc23)[C@@H](c2n[nH]c3cc(CO)ccc23)N1CC(C)(C)F [Compound I-2, [3-[(1S,3R)-2-(2-fluoro-2-methyl-propyl)-3-methyl-1,3,4,9-tetrahydropyrido[3,4-b]indol-1-yl]-1H-indazol-6-yl]methanol]",+ (estrogen receptor agonism having (i) at least 80% increase in the E2-normalized signal in the AP assay (agonist mode) and (ii) no more than 80% reduction in the E2-normalized signal in the AP assay (antagonist mode))
7,"C[C@@H]1Cc2c([nH]c3ccccc23)[C@@H](c2c[nH]c3cc(C(=O)O)ccc23)N1CC(C)(C)F [Compound I-3, 3-[(1R,3R)-2-(2-fluoro-2-methyl-propyl)-3-methyl-1,3,4,9-tetrahydropyrido[3,4-b]indol-1-yl]-1H-indole-6-carboxylic acid]",+ (estrogen receptor agonism having (i) at least 80% increase in the E2-normalized signal in the AP assay (agonist mode) and (ii) no more than 80% reduction in the E2-normalized signal in the AP assay (antagonist mode))
8,"C[C@@H]1Cc2c([nH]c3ccccc23)[C@@H](c2n[nH]c3cc(C(=O)O)ccc23)N1CC(C)(C)F [Compound I-4, 3-[(1S,3R)-2-(2-fluoro-2-methyl-propyl)-3-methyl-1,3,4,9-tetrahydropyrido[3,4-b]indol-1-yl]-1H-indazole-6-carboxylic acid]",+ (estrogen receptor agonism having (i) at least 80% increase in the E2-normalized signal in the AP assay (agonist mode) and (ii) no more than 80% reduction in the E2-normalized signal in the AP assay (antagonist mode))
9,"C[C@@H]1Cc2c([nH]c3ccccc23)[C@@H](c2c[nH]c3cc(CN4CC(CF)C4)ccc23)N1CC(C)(C)F [Compound I-5, (1R,3R)-1-[6-[[3-(fluoromethyl)azetidin-1-yl]methyl]-1H-indol-3-yl]-2-(2-fluoro-2-methyl-propyl)-3-methyl-1,3,4,9-tetrahydropyrido[3,4-b]indole]",++ (estrogen receptor antagonism having (i) between 10% and 80% increase in the E2-normalized signal in the AP assay (agonist mode) and (ii) between 10% and 80% reduction in the E2-normalized signal in the AP assay (antagonist mode))
10,"CC1CN(Cc2ccc3c([C@@H]4c5[nH]c6ccccc6c5C[C@@H](C)N4CC(C)(C)F)c[nH]c3c2)C1 [Compound I-6, (1R,3R)-2-(2-fluoro-2-methyl-propyl)-3-methyl-1-[6-[(3-methylazetidin-1-yl)methyl]-1H-indol-3-yl]-1,3,4,9-tetrahydropyrido[3,4-b]indole]",++ (estrogen receptor antagonism having (i) between 10% and 80% increase in the E2-normalized signal in the AP assay (agonist mode) and (ii) between 10% and 80% reduction in the E2-normalized signal in the AP assay (antagonist mode))
11,"CCCN(C)Cc1ccc2c([C@@H]3c4[nH]c5ccccc5c4C[C@@H](C)N3CC(C)(C)F)c[nH]c2c1 [Compound I-7, N-[[3-[(1R,3R)-2-(2-fluoro-2-methyl-propyl)-3-methyl-1,3,4,9-tetrahydropyrido[3,4-b]indol-1-yl]-1H-indol-6-yl]methyl]-N-methyl-propan-1-amine]",+ (estrogen receptor agonism having (i) at least 80% increase in the E2-normalized signal in the AP assay (agonist mode) and (ii) no more than 80% reduction in the E2-normalized signal in the AP assay (antagonist mode))
12,"C[C@@H]1Cc2c([nH]c3ccccc23)[C@@H](c2c[nH]c3cc(CNCCCF)ccc23)N1CC(C)(C)F [Compound I-8, 3-fluoro-N-[[3-[(1R,3R)-2-(2-fluoro-2-methyl-propyl)-3-methyl-1,3,4,9-tetrahydropyrido[3,4-b]indol-1-yl]-1H-indol-6-yl]methyl]propan-1-amine]",+ (estrogen receptor agonism having (i) at least 80% increase in the E2-normalized signal in the AP assay (agonist mode) and (ii) no more than 80% reduction in the E2-normalized signal in the AP assay (antagonist mode))
13,"C[C@@H]1Cc2c([nH]c3ccccc23)[C@@H](c2c[nH]c3cc(CN(C)CCCF)ccc23)N1CC(C)(C)F [Compound I-9, 3-fluoro-N-[[3-[(1R,3R)-2-(2-fluoro-2-methyl-propyl)-3-methyl-1,3,4,9-tetrahydropyrido[3,4-b]indol-1-yl]-1H-indol-6-yl]methyl]-N-methyl-propan-1-amine]",+ (estrogen receptor agonism having (i) at least 80% increase in the E2-normalized signal in the AP assay (agonist mode) and (ii) no more than 80% reduction in the E2-normalized signal in the AP assay (antagonist mode))
